pIC50: −log10 of the molar value.
Assays:
[1] = target: Tyrosine-protein kinase BTK (Homo sapiens, UniProt Q06187); experiment: Inhibition of BTK (unknown origin) measured by ADP-Glo assay
TMD8 [2] = experiment: Antiproliferative activity against human TMD8 cells incubated for 72 hrs by CellTiter-Glo assay; settings: TMD8, 72 h
DOHH-2 = experiment: Antiproliferative activity against human DOHH-2 cells incubated for 72 hrs by CellTiter-Glo assay; assay type: functional, cell-based; settings: DOHH-2, 72 h
SU-DHL-6 = experiment: Antiproliferative activity against human SU-DHL-6 cells incubated for 72 hrs by CellTiter-Glo assay; assay type: functional, cell-based; settings: SU-DHL-6, 72 h
TMD8 [3] = experiment: Antitumor activity against human TMD8 cells xenografted in female CB-17 SCID nude mouse assessed as tumor growth inhibition at 25 mg/kg, po administered twice daily for 21 days; assay type: functional; settings: TMD8, 504 h, time 21 day, read-out: TGI
[4] = Toxicity in female CB-17 SCID nude mouse xenografted with human TMD8 cells assessed as effect on body weight at 25 mg/kg, po administered twice daily for 21 days; assay type: organism-based; settings: in vivo, 504 h, time 21 day
Raji = experiment: Antiproliferative activity against human Raji cells incubated for 72 hrs by CellTiter-Glo assay; assay type: functional, cell-based
SUD4 = experiment: Antiproliferative activity against human SU-DHL-4 cells incubated for 72 hrs by CellTiter-Glo assay; assay type: functional, cell-based; settings: SU-DHL-4, 72 h
Pfeiffer = experiment: Antiproliferative activity against human Pfeiffer cells incubated for 72 hrs by CellTiter-Glo assay; assay type: functional, cell-based
Ramos = experiment: Antiproliferative activity against human Ramos cells incubated for 72 hrs by CellTiter-Glo assay; assay type: functional, cell-based
[5] = Antiproliferative activity against human MINO cells incubated for 72 hrs by CellTiter-Glo assay; assay type: functional, cell-based
OCI-Ly3 = experiment: Antiproliferative activity against human OCILY3 cells incubated for 72 hrs by CellTiter-Glo assay; assay type: functional, cell-based; settings: OCI-Ly3, 72 h
Rec1 = experiment: Antiproliferative activity against human REC1 cells incubated for 72 hrs by CellTiter-Glo assay; assay type: functional, cell-based; settings: Rec1, 72 h
Homo sapiens = species on record: Homo sapiens; experiment: Selectivity ratio for inhibition of BTK (unknown origin) over EGFR (unknown origin)

Chain of Tyrosine-protein kinase BTK (Q06187 whole entry): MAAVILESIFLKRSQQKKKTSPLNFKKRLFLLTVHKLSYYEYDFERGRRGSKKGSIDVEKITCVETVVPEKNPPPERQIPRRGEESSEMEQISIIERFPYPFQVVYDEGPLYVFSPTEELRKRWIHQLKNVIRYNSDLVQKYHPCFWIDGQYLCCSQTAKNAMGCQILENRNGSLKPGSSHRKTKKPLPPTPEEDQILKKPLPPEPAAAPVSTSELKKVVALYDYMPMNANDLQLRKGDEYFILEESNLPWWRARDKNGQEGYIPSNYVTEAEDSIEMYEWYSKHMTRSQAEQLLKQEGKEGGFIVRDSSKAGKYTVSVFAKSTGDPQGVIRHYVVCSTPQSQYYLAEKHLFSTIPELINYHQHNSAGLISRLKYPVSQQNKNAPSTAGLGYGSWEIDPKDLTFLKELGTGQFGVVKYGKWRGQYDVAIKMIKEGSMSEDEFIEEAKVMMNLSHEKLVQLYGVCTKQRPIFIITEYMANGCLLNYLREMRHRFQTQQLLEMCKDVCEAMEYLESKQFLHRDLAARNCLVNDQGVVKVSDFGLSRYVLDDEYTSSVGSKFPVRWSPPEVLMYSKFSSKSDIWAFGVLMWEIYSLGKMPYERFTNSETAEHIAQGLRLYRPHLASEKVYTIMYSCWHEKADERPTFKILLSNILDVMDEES

Row | pIC50 [1] | SMILES | pIC50 (TMD8 [2]) | other results
1 | 7.63 | C=CC(=O)N1CCC(CNc2ncnc3[nH]cc(C(=O)N4CC(OC(C)C)C4)c23)CC1 | – | –
2 | 9.10 | C=CC(=O)N1CCC(CNc2ncnc3[nH]cc(C(=O)N4CC(Oc5cccc6ccccc56)C4)c23)CC1 | 7.65 | –
3 | 9.10 | C=CC(=O)N1CCC(CNc2ncnc3[nH]cc(C(=O)N4CC(Oc5ccccn5)C4)c23)CC1 | 7.42 | –
4 | 6.01 | CC#CC(=O)N1CCC(Nc2ncnc3[nH]cc(C(=O)N4CC(Oc5ccccc5)C4)c23)CC1 | – | –
5 | 9.10 | C=CC(=O)N1CCC(c2c[nH]c3ncnc(-c4ccc(CNC(=O)c5ccc(C(C)(C)C)cc5)c(C)c4)c23)CC1 | 8.82 | –
6 | 7.28 | C=CC(=O)N1CCC(CNc2ncnc3[nH]cc(C(=O)NCc4ccccc4)c23)CC1 | – | –
7 | 7.50 | CCOc1cc2ncc(C#N)c(Nc3ccc(OCc4ccccn4)c(Cl)c3)c2cc1NC(=O)/C=C/[C@H]1CCCN1C [PYROTINIB] | – | –
8 | 9.15 | C=CC(=O)N1CCC(CNc2ncnc3[nH]cc(C(=O)N4CC(Oc5ccc(F)cc5)C4)c23)CC1 | 7.08 | –
9 | 8.72 | C=CC(=O)N1CCC(c2c[nH]c3ncnc(-c4ccc(CNC(=O)c5ccc(C(C)(C)C)cc5)c(F)c4)c23)CC1 | – | –
10 | 9.00 | CC#CC(=O)N1CC=C(c2c[nH]c3ncnc(-c4ccc(CNC(=O)c5ccccc5)c(F)c4)c23)CC1 | 8.27 | –

The remaining lines, values behind:

Row | SMILES | pIC50 [1] | pIC50 (TMD8 [2]) | other results
11 | CC#CC(=O)N1CCC(c2c[nH]c3ncnc(-c4ccc(CNC(=O)c5ccc(C(C)(C)C)cc5)cc4)c23)CC1 | 8.66 | – | –
12 | CC#CC(=O)N1CC=C(c2c[nH]c3ncnc(-c4ccc(CNC(=O)c5ccc(C(C)(C)C)cc5)c(C)c4)c23)CC1 | 8.96 | 8.77 | –
13 | CC#CC(=O)N1CC=C(c2c[nH]c3ncnc(-c4ccc(CNC(=O)c5ccc(C(C)(C)C)cc5)cc4)c23)CC1 | 7.95 | – | –
14 | C=CC(=O)N1CCC[C@@H](n2nc(-c3ccc(Oc4ccccc4)cc3)c3c(N)ncnc32)C1 [IBRUTINIB] | – | 8.57 | pIC50 (DOHH-2): 6.30; pIC50 (SU-DHL-6): 5.82; inhibition in vivo at 25 mg/kg (TMD8 [3]): 103%; Activity [4]: Non-Toxic; pIC50 (Raji): < 5.00; pIC50 (SUD4): 6.09; pIC50 (Pfeiffer): 5.78; pIC50 (Ramos): 5.68; pIC50 [5]: < 5.00; pIC50 (OCI-Ly3): < 5.00; pIC50 (Rec1): 9.10
15 | C=CC(=O)N1CC=C(c2c[nH]c3ncnc(-c4ccc(CNC(=O)c5ccc(C(C)(C)C)cc5)cc4)c23)CC1 | 8.60 | – | –
16 | C=CC(=O)N1CCC(CNc2ncnc3[nH]cc(C(=O)N4CC(Oc5ccc6ccccc6c5)C4)c23)CC1 | 8.85 | 7.55 | –
17 | C=CC(=O)N1CC=C(c2c[nH]c3ncnc(-c4ccc(CNC(=O)c5ccc(C(C)(C)C)cc5)c(F)c4)c23)CC1 | 8.89 | 8.47 | –
18 | CC#CC(=O)N1CCC(CNc2ncnc3[nH]cc(C(=O)N4CC(Oc5ccccc5)C4)c23)CC1 | 7.79 | – | –
19 | C=CC(=O)N1CCC(CNc2ncnc3[nH]cc(C(=O)N4CC(Oc5ccccc5)C4)c23)CC1 | 9.22 | 7.61 | –
20 | CC#CC(=O)NC1CCCN(c2ncnc3[nH]cc(C(=O)N4CC(Oc5ccccc5)C4)c23)C1 (stereo not drawn) | < 5.00 | – | –
21 | C=CC(=O)N1CC=C(c2c[nH]c3ncnc(-c4ccc(CNC(=O)c5ccc(C(C)(C)C)cc5)c(C)c4)c23)CC1 | 8.87 | – | –
22 | CC#CC(=O)N1CC=C(c2c[nH]c3ncnc(-c4ccc(CNC(=O)Nc5ccccc5)c(F)c4)c23)CC1 | 8.85 | 8.14 | –
23 | C=CC(=O)N1CCCC(Nc2ncnc3[nH]cc(C(=O)N4CC(Oc5ccccc5)C4)c23)C1 (stereo not drawn) | 8.72 | 6.34 | –
24 | C=CC(=O)N1CCC(CNc2ncnc3[nH]cc(C(=O)N4CC(OCc5ccccc5)C4)c23)CC1 | 8.70 | 7.51 | –
25 | C=CC(=O)N1CCC([C@@H]2CCNc3c(C(N)=O)c(-c4ccc(Oc5ccccc5)cc4)nn32)CC1 | – | – | Selectivity ratio (Homo sapiens): 8.7
